Measured values reported in patent publication US7129213B2, “Tripeptides and tripeptide derivatives for the treatment of neurodegenerative diseases” (Neurotell AG, priority 2002, dated 2006).
Counter-ions that a name gives are not always drawn. Where a SMILES comes first, the peptide text is derived from it.

Test system: rat treated by Gp120 as intracerebroventricular injection
Assay: Gp120 model, sound avoidance conditioning
Assay type: in vivo
Conditions: for AUC (average area under the learning curve per day) / percentage of adequate responses D0 / percentage of adequate responses D3 / percentage of adequate responses D4: Gp120 ICV; for percentage of adequate responses D0: learning day D0; for percentage of adequate responses D3: learning day D3; for percentage of adequate responses D4: learning day D4
Description: Day 0. The animals were slightly anesthetized by ether, an incision was made into the skin of the skull, and the skull was pierced by means of a dental burr. A metal needle was stereotaxically directed to the lateral ventricle, and then fixed by means of dental cement. Every day of the experiment, the patency of the needle was controlled.
Day 3. Three days after introducing the needle (recovery from the postoperative shock) the animals received an intra-ventricular injection of 10 nM/kg/day of Gp120 (dissolved in normal saline) in a volume of 20 μl. This administration was repeated daily for a period of five days.
Day 18. Ten days after the last administration of Gp120, the rats were chloralized (360 mg/kg). A permanent floating catheter was retrogradely introduced into the common carotid artery. This catheter left again on the top of the skull, where it was fixed.
Day 21. Three days later (recovery from the postoperative shock), the 30 rats were randomly divided into three group of 10 animals each: • the first group of 10 rats received an intracarotid injection of 1 ml/kg/day of normal saline for a period of 10 days. • the second group of 10 rats received 10 mg/kg/day of HCl-Gly-Phe-ProNH2 (dissolved in normal saline) for a period of 10 days. • the third group received 20 mg/kg/day of HCl-Gly-Phe-ProNH2 under the same conditions. The injections were given between 9.00 and 9.30 a.m.
Day 26 to 30. The animals of all three groups were placed under the common learning conditions of the entire protocol. The learning sessions took place between 10.00 a.m. and 11.00 a.m.
During the last five days of treatment, at 10.00 a.m. (1 hour after the administration of HCl-Gly-Phe-ProNH2), the animals were placed into a learning cage for sound avoidance conditioning (Conditioning avoidance response). The animals learned to climb a pole first to escape from and then to avoid an electric shock. This method was standardized and quantified in our laboratory (see Le Poncin M., Lafitte J. C., Rapin J. R., Sound Avoidance Conditioning and a Mathematical approach to the description of acquisition performance, Math. Biosciences 59 (1982) 242–268).
For a period of five days, the animals were placed everyday under these learning conditions for a total of ten tests a day. Results are expressed as percentage of adequate responses, and the kinetics of the responses is represented by a multi-exponential maximum curve.
The curve maximum represents the learning capacities. The slope of the curve evaluates the learning speed. The area under the curve (AUC) represents a good evaluation of all conditioning parameters. The maximum value of the area under the curve is 500, if the animals show 100% adequate responses as early as Day 0. In fact, an average area under the curve is calculated per day, what amounts to a maximum value of 100. In the absolute control animals, this average area under the curve is equal to 40+/−4.

NCC(=O)N[C@@H](Cc1ccccc1)C(=O)N1CCC[C@H]1C(N)=O [HCl-Gly-Phe-ProNH2, glycyl-L-phenylalanyl-L-prolineamide] (H-Gly-Phe-Pro-NH2)
AUC (average area under the learning curve per day) (10 mg/kg/day 10 days): **23.8 +/− 4.1 | percentage of adequate responses D0 (10 mg/kg/day 10 days): 0% | percentage of adequate responses D3 (10 mg/kg/day 10 days): **35 +/− 4% | percentage of adequate responses D4 (10 mg/kg/day 10 days): **55 +/− 7% | AUC (average area under the learning curve per day) (20 mg/kg/day 10 days): **29.6 +/− 3.0 | percentage of adequate responses D0 (20 mg/kg/day 10 days): 0% | percentage of adequate responses D3 (20 mg/kg/day 10 days): **48 +/− 5% | percentage of adequate responses D4 (20 mg/kg/day 10 days): **70 +/− 5% | effect on learning parameters (Gp120 model, 10 and 20 mg/kg): restores the capacities of the animal depending on the dose
